# Test results as given in US12024716B2, “Compositions and methods of expansion of T cell populations” (THE BOARD OF TRUSTEES OF THE LELAND STANFORD JUNIOR …, priority 2018, dated 2024).
# Like-named read-outs stand apart in the source and are kept apart here.
# Tests used:
# [1] = system: human naïve CFSE+ CD8+ T cells; conditions: for CFSE^+ CD8^+ T cells (%)^*: live and non-apoptotic gates not applied
# From the text: Peripheral blood mononuclear cells (PBMCs) were isolated from Trima Accel leukocyte reduction system (LRS) chambers (Terumo BCT, Lakewood, CO) of de-identified healthy blood donors (Stanford Blood Center, Palo Alto, CA) using Ficoll-Paque Plus (GE Healthcare, Chicago, IL, USA) density gradient centrifugation according to manufacturer's instructions. For long-term storage, PBMCs were resuspended in FBS with 10% DMSO and stored in liquid nitrogen at density 1-5×10^7 cells/mL. Cryopreserved PBMCs were thawed into cell culture medium (CCM; RPMI 1640 containing 10% FBS, 1× L-glutamine, and 1× penicillin/streptomycin; Thermo Fisher Scientific Waltham, MA, USA) supplemented with 25 U/mL benzonase (SIGMA-ALDRICH®, St. Louis, MO, USA). Cells were then pelleted for 5 minutes at 250×g, resuspended in 10 mL CCM, rested at 37° C., 5% CO2 for 60 minutes, filtered through a 40 μm strainer, and counted. Where indicated, naïve T cells were enriched using Naïve Pan T Cell Isolation Kit (Miltenyi Biotec #130-097-095, Bergisch Gladbach, Germany) according to manufacturer's instructions.
# Unless otherwise noted, carboxyfluorescein succinimidyl ester (CFSE) labeling was performed as described by Quah and Parish16, 17. Briefly, 50 μg carboxyfluorescein diacetate succinimidyl ester (CFDA-SE) was reconstituted in 18 μL DMSO (CellTrace CFSE Cell Proliferation Kit, Thermo Fisher Scientific #C34554) to create a 5 mM stock immediately prior to labeling. Cells were resuspended in 1 mL warm CCM and transferred into a new 15 mL Falcon tube lying horizontally. A drop containing 110 μL warm PBS was placed on a side of the tube, and 17.6 μL of 5 mM CFDA-SE was diluted into the drop. The tube was then quickly capped and turned upside right while being vortexed gently, yielding a final concentration of 80 μM CFDA-SE. Cells were incubated for 5 minutes at room temperature, quenched by adding 9 mL warm CCM, and washed twice with 10 mL warm CCM. When only naïve T cells were labeled with CFSE, they were combined with the CFSE-negative PBMC fraction devoid of naïve T cells after labeling to restore original cell proportions. All centrifuging steps for live cells were done for 5 minutes at 250 g, 37° C. CFSE and labeled cells were protected from light throughout the experiment. During protocol optimization, the above labeling protocol for 0.1-10×10^7 cells and CFSE concentrations in range of 0.2 μM to 320 μM was tested. Long-term cell viability and proliferation were assessed. Manufacturer's labeling protocol for CFSE concentrations 0.2 μM to 20 μM, as well as other CFSE suppliers (BIOLEGEND® #422701, San Diego, CA, USA) were also tested.
# Samples were processed as previously known in the art. To stain cells for viability, cisplatin (SIGMA-ALDRICH® #P4394) was reconstituted to 100 mM in DMSO and incubated at 37° C. for 3 days to prepare a stock solution, which was then stored in aliquots at −20° C. Cell pellets were resuspended in 1 mL PBS containing 0.5 μM cisplatin, gently vortexed, incubated 5 minutes at room temperature, quenched with 3 mL CCM, pelleted, and resuspended in 1 mL CCM. […] All centrifuging steps for fixed cells were done for 5 minutes at 600×g, 4° C. Cell pellets were optionally stored at −80° C.
# (§1) Mass cytometry data were normalized and debarcoded.
# pRPS6 = conditions: gated on CFSE+CD8+ T cells
# From the text: as §1
# [2] = system: human naïve CFSE+ CD8+ T cells; experiment: Naïve CD8+ T-cell differentiation in REP: skewing between TSCM-like and dysfunctional phenotype (mass cytometry, force-directed graph, DPT); conditions: for CD45RA^Low CD25^High (%) / CD45RA^High CD25^Low (%): gated on CFSE^+CD8^+T cells; for CD45RA^Low CD25^High (%): path toward dysfunctional phenotype; for CD45RA^High CD25^Low (%): path towards TSCM-like phenotype; for CD45RA High CD25 Low (%) / CD45RA Low CD25 High (%): gated on CFSE+CD8+ T cells
# [3] = REP day 3, among CD45RA^High CD25^Low CFSE^+CD8^+T cells
# [4] = REP day 3, among CD45RA^Low CD25^High CFSE^+CD8^+T cells
# [5] = REP day 4, among CD45RA^High CD25^Low CFSE^+CD8^+T cells
# [6] = REP day 4, among CD45RA^Low CD25^High CFSE^+CD8^+T cells
# [7] = REP day 5, among CD45RA^High CD25^Low CFSE^+CD8^+T cells
# [8] = REP day 5, among CD45RA^Low CD25^High CFSE^+CD8^+T cells
# [9] = REP day 7, among CD45RA^High CD25^Low CFSE^+CD8^+T cells
# [10] = REP day 7, among CD45RA^Low CD25^High CFSE^+CD8^+T cells
# [11] = in CD45RA High CD25 Low subset of CFSE+CD8+ T cells, REP day 3
# [12] = in CD45RA High CD25 Low subset of CFSE+CD8+ T cells, REP day 4
# [13] = in CD45RA High CD25 Low subset of CFSE+CD8+ T cells, REP day 5
# [14] = in CD45RA High CD25 Low subset of CFSE+CD8+ T cells, REP day 7
# [15] = in CD45RA Low CD25 High subset of CFSE+CD8+ T cells, REP day 3
# [16] = in CD45RA Low CD25 High subset of CFSE+CD8+ T cells, REP day 4
# [17] = in CD45RA Low CD25 High subset of CFSE+CD8+ T cells, REP day 5
# [18] = in CD45RA Low CD25 High subset of CFSE+CD8+ T cells, REP day 7
smiles,measurement,setting,value
"CO[C@H]1C[C@@H]2CC[C@@H](C)[C@@](O)(O2)C(=O)C(=O)N2CCCC[C@H]2C(=O)O[C@H]([C@H](C)C[C@@H]2CC[C@@H](O)[C@H](OC)C2)CC(=O)[C@H](C)/C=C(\C)[C@@H](O)[C@@H](OC)C(=O)[C@H](C)C[C@H](C)/C=C/C=C/C=C/1C [Rapamycin, rapamycin]",Apoptotic cells (% cPARP+ cells in CFSE+ CD8+ T cells),[1]; REP day 3,0.43%
same,Apoptotic cells (% cPARP^+ cells in CFSE^+ CD8^+T cells),[1]; REP day 3,0.43%
same,CFSE+ CD8+ T cells (%),[1]; REP day 3,2.14%
same,Dead cells (1% cisplatin+ cells in CFSE+ CD8+ T cells),[1]; REP day 3,0.26%
same,Dead cells (1% cisplatin^+ cells in CFSE^+ CD8^+ T cells),[1]; REP day 3,0.26%
same,Total CFSE+ CD8+ T cells,[1]; REP day 3,0.14
same,Total CFSE^+ CD8^+ T cells,[1]; REP day 3,0.14
same,Total cells (×10^6),[1]; REP day 3,6.48 ×10^6
same,Apoptotic Cell (%),[1]; [3],0.53%
same,Dead cells (%),[1]; [3],0.00%
same,Apoptotic Cells (%),[1]; [4],0.31%
same,Dead cells (%),[1]; [4],0.63%
same,CFSE^+ CD8^+ T cells (%)^*,[1]; REP day 3,2.14%
same,Apoptotic cells (% cPARP+ cells in CFSE+ CD8+ T cells),[1]; REP day 4,0.85%
same,Apoptotic cells (% cPARP^+ cells in CFSE^+ CD8^+T cells),[1]; REP day 4,0.85%
same,CFSE+ CD8+ T cells (%),[1]; REP day 4,3.07%
same,Dead cells (1% cisplatin+ cells in CFSE+ CD8+ T cells),[1]; REP day 4,0.38%
same,Dead cells (1% cisplatin^+ cells in CFSE^+ CD8^+ T cells),[1]; REP day 4,0.38%
same,Total CFSE+ CD8+ T cells,[1]; REP day 4,0.31
same,Total CFSE^+ CD8^+ T cells,[1]; REP day 4,0.31
same,Total cells (×10^6),[1]; REP day 4,9.96 ×10^6
same,Apoptotic Cell (%),[1]; [5],0.59%
same,Dead cells (%),[1]; [5],0.39%
same,Apoptotic Cells (%),[1]; [6],0.84%
same,Dead cells (%),[1]; [6],0.21%
same,CFSE^+ CD8^+ T cells (%)^*,[1]; REP day 4,3.07%
same,Apoptotic cells (% cPARP+ cells in CFSE+ CD8+ T cells),[1]; REP day 5,1.07%
same,Apoptotic cells (% cPARP^+ cells in CFSE^+ CD8^+T cells),[1]; REP day 5,1.07%
same,CFSE+ CD8+ T cells (%),[1]; REP day 5,5.14%
same,Dead cells (1% cisplatin+ cells in CFSE+ CD8+ T cells),[1]; REP day 5,0.21%
same,Dead cells (1% cisplatin^+ cells in CFSE^+ CD8^+ T cells),[1]; REP day 5,0.21%
same,Total CFSE+ CD8+ T cells,[1]; REP day 5,0.71
same,Total CFSE^+ CD8^+ T cells,[1]; REP day 5,0.71
same,Total cells (×10^6),[1]; REP day 5,13.91 ×10^6
same,Apoptotic Cell (%),[1]; [7],2.33%
same,Dead cells (%),[1]; [7],0.00%
same,Apoptotic Cells (%),[1]; [8],0.79%
same,Dead cells (%),[1]; [8],0.24%
same,CFSE^+ CD8^+ T cells (%)^*,[1]; REP day 5,5.14%
same,Apoptotic cells (% cPARP+ cells in CFSE+ CD8+ T cells),[1]; REP day 7,2.16%
same,Apoptotic cells (% cPARP^+ cells in CFSE^+ CD8^+T cells),[1]; REP day 7,2.16%
same,CFSE+ CD8+ T cells (%),[1]; REP day 7,6.49%
same,Dead cells (1% cisplatin+ cells in CFSE+ CD8+ T cells),[1]; REP day 7,1.13%
same,Dead cells (1% cisplatin^+ cells in CFSE^+ CD8^+ T cells),[1]; REP day 7,1.13%
same,Total CFSE+ CD8+ T cells,[1]; REP day 7,1.82
same,Total CFSE^+ CD8^+ T cells,[1]; REP day 7,1.82
same,Total cells (×10^6),[1]; REP day 7,28.03 ×10^6
same,Apoptotic Cell (%),[1]; [9],3.47%
same,Dead cells (%),[1]; [9],0.69%
same,Apoptotic Cells (%),[1]; [10],1.15%
same,Dead cells (%),[1]; [10],0.72%
same,CFSE^+ CD8^+ T cells (%)^*,[1]; REP day 7,6.49%
same,Apoptotic Cell (%),[1]; [11],0.53%
same,Dead cells (%),[1]; [11],0.00%
same,Apoptotic Cell (%),[1]; [12],0.59%
same,Dead cells (%),[1]; [12],0.39%
same,Apoptotic Cell (%),[1]; [13],2.33%
same,Dead cells (%),[1]; [13],0.00%
same,Apoptotic Cell (%),[1]; [14],3.47%
same,Dead cells (%),[1]; [14],0.69%
same,Apoptotic Cells (%),[1]; [15],0.31%
same,Dead cells (%),[1]; [15],0.63%
same,Apoptotic Cells (%),[1]; [16],0.84%
same,Dead cells (%),[1]; [16],0.21%
same,Apoptotic Cells (%),[1]; [17],0.79%
same,Dead cells (%),[1]; [17],0.24%
same,Apoptotic Cells (%),[1]; [18],1.15%
same,Dead cells (%),[1]; [18],0.72%
same,"pRPS6+ (%) (first column, c2)",pRPS6; REP day 3,99.49%
same,"pRPS6+ (%) (second column, c5)",pRPS6; REP day 3,0.51%
same,"pRPS6+ (%) (first column, c2)",pRPS6; REP day 4,99.15%
same,"pRPS6+ (%) (second column, c5)",pRPS6; REP day 4,0.85%
same,"pRPS6+ (%) (first column, c2)",pRPS6; REP day 5,99.28%
same,"pRPS6+ (%) (second column, c5)",pRPS6; REP day 5,0.72%
same,"pRPS6+ (%) (first column, c2)",pRPS6; REP day 7,99.44%
same,"pRPS6+ (%) (second column, c5)",pRPS6; REP day 7,0.56%
same,CD45RA^Low CD25^High (%),[2]; REP day 3,27.34%
same,CD45RA^High CD25^Low (%),[2]; REP day 3,16.11%
same,CD45RA^Low CD25^High (%),[2]; REP day 4,30.19%
same,CD45RA^High CD25^Low (%),[2]; REP day 4,16.03%
same,CD45RA^Low CD25^High (%),[2]; REP day 5,43.80%
same,CD45RA^High CD25^Low (%),[2]; REP day 5,8.87%
same,CD45RA^Low CD25^High (%),[2]; REP day 7,21.79%
same,CD45RA^High CD25^Low (%),[2]; REP day 7,9.00%
same,CD45RA High CD25 Low (%),[2]; REP day 3,16.11%
same,CD45RA Low CD25 High (%),[2]; REP day 3,27.34%
same,CD45RA High CD25 Low (%),[2]; REP day 4,16.03%
same,CD45RA Low CD25 High (%),[2]; REP day 4,30.19%
same,CD45RA High CD25 Low (%),[2]; REP day 5,8.87%
same,CD45RA Low CD25 High (%),[2]; REP day 5,43.80%
same,CD45RA High CD25 Low (%),[2]; REP day 7,9.00%
same,CD45RA Low CD25 High (%),[2]; REP day 7,21.79%
